Values joined by “and” are separate entries in the source; they are usually repeats but may differ in a detail not shown here. Identical values can stand only once. Counter-ions that a name gives are not always drawn.
What was measured:
[1] = biological target: muscarinic cholinergic receptor; assay: [^3 H] Quinuclidinyl Benzilate (^3 H-QNB) Binding Assay, rat cerebral cortex homogenate; details: pH 7.4
[2] = biological target: muscarinic cholinergic receptor; assay: [^3 H]-Cis-methyldioxolane (^3 H-CD) Binding Assay (High Affinity), rat cerebral cortex homogenate; details: 1.0 nM ^3 H-CD, 25° C., 120 minutes
muscarinic sites = details: cited from earlier work
SDAT patients = details: compared to the anticholinesterase inhibitor physostigmine; cited from earlier work
[3] = rat cerebral cortex, 0.25 nM ^3 H-QNB, 25° C., hydrochloride
[4] = rat cerebral cortex, 0.25 nM ^3 H-QNB, 25° C.

| SMILES | IC50 [1, 3] | IC50 ([2]; pH 7.4, hydrochloride) | IC50 [1, 4] | IC50 ([2]; pH 7.4) | further results |
| --- | --- | --- | --- | --- | --- |
| CSc1sccc1C#CCN1CCCCC1 [1-[3-[2-(Methylthio)-3-thienyl]-2-propynyl]piperidine, hydrochloride] | 2.2 µM | 0.0325 µM | – | – | – |
| CSc1sccc1C#CCN1CCCCC1 [1-[3-[2-(Methylthio)-3-thienyl]-2-propynyl]piperidine] | – | – | 1.14 µM | 0.0311 µM | – |
| CSc1sccc1C#CCN1CCCC1 [1-[3-[2-(Methylthio)-3-thienyl]-2-propynyl]pyrrolidine, hydrochloride] | 0.81 µM | – | – | – | – |
| CSc1sccc1C#CCN1CCCC1 [1-[3-[2-(Methylthio)-3-thienyl]-2-propynyl]pyrrolidine] | – | – | 0.92 µM | 0.031 µM | – |
| CSc1ccsc1C#CCN1CCCCC1 [1-[3-[3-(Methylthio)-2-thienyl]-2-propynyl]piperidine, hydrochloride] | 2.1 µM | 0.044 µM | – | – | – |
| CSc1ccsc1C#CCN1CCCCC1 [1-[3-[3-(Methylthio)-2-thienyl]-2-propynyl]piperidine] | – | – | 1.97 µM | 0.122 µM | – |
| CSc1ccsc1C#CCN1CCCC1 [1-[3-[3-(Methylthio)-2-thienyl]-2-propynyl]pyrrolidine, hydrochloride] | 1.87 µM | 0.044 µM | – | – | – |
| CSc1ccsc1C#CCN1CCCC1 [1-[3-[3-(Methylthio)-2-thienyl]-2-propynyl]pyrrolidine] | – | – | 1.38 µM | 0.016 µM | – |
| CSc1cscc1C#CCN1CCCCC1 [1-[3-[4-(Methylthio)-3-thienyl]-2-propynyl]piperidine] | – | – | 5.35 µM and 5.88 µM | 0.998 µM and 0.53 µM | – |
| CSc1cscc1C#CCN1CCCC1 [1-[3-[4-(Methylthio)-3-thienyl]-2-propynyl]pyrrolidine, hydrochloride] | 2.27 µM | 0.11 µM | – | – | – |
| CSc1cscc1C#CCN1CCCC1 [1-[3-[4-(Methylthio)-3-thienyl]-2-propynyl]pyrrolidine] | – | – | 3.34 µM | 0.366 µM | – |
| CC(=O)N(C)C(C)C#CCN1CCCC1 (stereo not shown) [BM-5, N-methyl-N-(1-methyl-4-pyrrolidino-2-butynyl)acetamide] | – | – | – | – | activity at muscarinic sites (muscarinic sites; Eur. J. Med. Chem., 1982, 17, 317): antagonist at some muscarinic sites while being an agonist at most others; postsynaptic cholinergic activity (muscarinic sites; postsynaptic): postsynaptic partial cholinergic agonist; presynaptic cholinergic activity (muscarinic sites; presynaptic): presynaptic cholinergic antagonist |
| CSc1sccc1C#CC[N+](C)(C)C [N,N,N-Trimethyl-3-[2-(methylthio)-3-thienyl]-2-propyn-1-aminium, iodide] | – | – | 3.44 µM | 0.0523 µM | – |
| CSc1ccsc1C#CC[N+](C)(C)C [N,N,N-Trimethyl-3-[3-(methylthio)-2-thienyl]-2-propyn-1-aminium, iodide] | – | – | 5.98 µM | 0.00592 µM | – |
| CSc1cscc1C#CC[N+](C)(C)C [N,N,N-Trimethyl-3-[4-(methylthio)-3-thienyl]-2-propyn-1-aminium, iodide] | – | – | – | 0.121 µM | IC50 [1]: 9.05 µM |
| CSc1sccc1C#CCN(C)C [N,N-Dimethyl-3-[2-(methylthio)-3-thienyl]-2-propyn-1-amine, hydrochloride] | 23.3 µM | 0.969 µM | – | – | – |
| CSc1sccc1C#CCN(C)C [N,N-Dimethyl-3-[2-(methylthio)-3-thienyl]-2-propyn-1-amine] | – | – | 21.4 µM | 0.942 µM | – |
| CSc1ccsc1C#CCN(C)C [N,N-Dimethyl-3-[3-(methylthio)-2-thienyl]-2-propyn-1-amine, hydrochloride] | 40.4 µM | 1.24 µM | – | – | – |
| CSc1ccsc1C#CCN(C)C [N,N-Dimethyl-3-[3-(methylthio)-2-thienyl]-2-propyn-1-amine] | – | – | 35 µM | 1.12 µM | – |
| CSc1cscc1C#CCN(C)C [N,N-Dimethyl-3-[4-(methylthio)-3-thienyl]-2-propyn-1-amine, hydrochloride] | 67.5 µM | 1.23 µM | – | – | – |
| CSc1cscc1C#CCN(C)C [N,N-Dimethyl-3-[4-(methylthio)-3-thienyl]-2-propyn-1-amine] | – | – | 239 µM | 4.83 µM | – |
| COC(=O)C1=CCCN(C)C1 [arecoline] | – | – | – | – | improvement in SDAT patients (SDAT patients): more-consistent improvement |
